In ChEMBL document CHEMBL3351965, “Taccalonolide microtubule stabilizers” (Bioorg Med Chem, 2014):

Legend:
[1] = Half life in phosphate buffer saline; format: physicochemical; settings: phosphate buffered saline
HeLa = assay: Antiproliferative activity against human HeLa cells by SRB assay; format: functional, cell-based

Row | IC50 (HeLa) [µM] | Compound | half-life [1] [h]
1 |  | CC(=O)O[C@@H]1[C@H]2[C@H]3[C@H]([C@H](OC(C)=O)[C@H](OC(C)=O)[C@]2(C)[C@H]2[C@H](C)[C@@H]4O[C@@]45OC(=O)[C@@](C)(O)[C@]5(C)[C@H]12)[C@]1(C)[C@H](C[C@@H]2O[C@@H]2[C@@H]1OC(C)=O)C(=O)[C@@H]3O | 9
2 | 3.4 | CC(=O)O[C@@H]1[C@H]2[C@@H]3C(=O)C(O)=C4C[C@@H]5O[C@@H]5[C@H](OC(C)=O)[C@]4(C)[C@H]3[C@H](OC(C)=O)[C@H](OC(C)=O)[C@]2(C)[C@@H]2[C@@H]1[C@]1(C)C(=C[C@H]2C)OC(=O)[C@@]1(C)O | 
3 | 5 | CC(=O)O[C@@H]1[C@H]2[C@H]3[C@H]([C@H](OC(C)=O)[C@H](OC(C)=O)[C@]2(C)[C@@H]2[C@@H]1[C@]1(C)C(=C[C@H]2C)OC(=O)[C@@]1(C)O)[C@]1(C)[C@H](C[C@@H]2O[C@@H]2[C@@H]1OC(C)=O)C(=O)C3(O)O | 
4 | 0.73 | CC(=O)O[C@H]1[C@@H]2[C@H]([C@H](C)C=C3OC(=O)[C@@](C)(O)[C@@]32C)[C@]2(C)[C@@H]1C1=C(O)C(=O)[C@H]3C[C@@H]4O[C@@H]4[C@H](OC(C)=O)[C@]3(C)[C@H]1[C@H](OC(C)=O)[C@@H]2OC(C)=O | 

Row | Compound | IC50 (HeLa) [µM] | half-life [1] [h]
5 | CC(=O)O[C@@H]1[C@H]2[C@H]3[C@H]([C@H](OC(C)=O)[C@H](OC(C)=O)[C@]2(C)[C@@H]2[C@@H]1[C@]1(C)C(=C[C@@]2(C)OO)OC(=O)[C@@]1(C)O)[C@]1(C)[C@H](C[C@@H]2O[C@@H]2[C@@H]1OC(C)=O)C(=O)[C@@H]3O | > 50 | 
